Data on 89 molecules can be found in a melting point compilation (Tetko et al.; mined from patent text by program, amines drawn as free bases though some values may be those of a salt).

By melting point is commonly meant the temperature, or range, at which the solid turns liquid. The molecule `CNC(=S)NC1=NN(c2ccc(Cl)cc2)CC1` showed a melting point of 237 °C.

For the molecule `c1ccc2c(c1)Oc1ccccc1-n1nnnc1-2`, the melting point was in the range of 206 to 208 °C.

As to `COc1ccc(-c2nc(-c3cccn3CC(=O)OC(C)C)sc2-c2ccc(OC)cc2)cc1`, the melting point lay within 130 to 133 °C.

The molecule `Cc1ccccc1CC(=NC#N)NC(NC(=O)Cc1cccc2ccccc12)C(C)(C)C` (centres undefined) yielded a melting point of 97 to 100 °C.

For the molecule `N#Cc1ccc2c(c1)C(CCC1CC1)(C(F)(F)F)c1nc[nH]c(=O)c1N2` (centres undefined), the melting point was above 280 °C.

In turn, `CCOC(=O)C1CC12CCN(c1ccc(N3CC(CNC(C)=O)OC3=O)cc1F)CC2` (centres undefined) came in with a melting point of 104 to 106 °C.

As for `CCOC(C)OC1CCC2(C)C3=C(CCC2C1(C)C)C1=CCC(C(C)CSc2ccccc2)C1(C)CC3` (centres undefined), the melting point is 101 to 107 °C.

`COCc1nc2c3c(ccn2c1C)C(=O)[C@H](O)[C@@H](c1ccccc1)N3` displayed a melting point of 168 to 173 °C.

Turning to `CC(C)n1nc(C#C[Si](C)(C)C)ccc1=O`, the melting point is 61 to 62.5 °C.

`COc1cc(COc2nn(-c3ccccc3)cc2C=O)ccc1OCc1nc(-c2ccccc2)oc1C` yielded a melting point of 142 to 143 °C.

Regarding `COc1c(C(=O)O)ccc(Cl)c1SC`, the melting point fell in the range of 121 to 123 °C.

Molecule `COc1cc(C(=O)NC2CN(C)C2)ccc1Nc1ncc2c(n1)N(C1CCCC1)CC(F)(F)C(=O)N2C` returned a melting point of 157 to 162 °C.

The molecule `CCCCc1cnc(C2=NC(C)(C(C)C)C(=O)N2)c(C(=O)O)c1` (centres undefined) displayed a melting point of 152 to 154 °C.

As to `COc1cc2nc(N3CCNCC3)nc(N)c2cc1OC`, the melting point lay within 224 to 228 °C.

`CCn1c(=O)c(-c2ccsc2)cc2cnc(Nc3ccccc3)nc21` returned a melting point of 223 to 225 °C.

Take `CS(=O)(=O)c1ccc(-c2c(-c3ccc(F)cc3)c(OCC(=O)c3ccc(F)cc3)nn2CC(=O)c2ccc(F)cc2)cc1`: the melting point fell in the range of 194 to 196 °C.

Take `CCCCOCCOc1ccc(-c2ccc3c(c2)C=C(C(=O)Nc2ccc([C@H](O)c4ccccn4)cc2)CCN3C(=O)C(F)(F)F)cc1`: the melting point lay in the range of 100 to 102 °C.

In the case of `CCCCCCn1c2c(c(=O)n3nc(-c4ccccc4)cc13)CN(C1CCCCC1)C2=O`, the melting point lay within 162 to 164 °C.

The molecule `COC(=O)C1=Cc2cccc(OCc3ccccc3)c2CC1` gave a melting point of 64 to 67 °C.

Molecule `Cc1cc2n(c(=O)n1)C(C)N=C2` (centres undefined) displayed a melting point of 231 to 232 °C.

`CC(C)C(C)(C)NC(N)=O` gave a melting point of 175 to 176 °C.

`COc1cccc(CC2(c3ccc4[nH]ccc4c3)CCNC2)c1` (centres undefined): the melting point is 170 to 171 °C.

The molecule `CCN(c1nc2ccccc2[nH]1)C1CCN(CCc2ccccc2)CC1` displayed a melting point of 205 °C.

Consider `COc1cc(C(=O)CBr)cc(Cl)c1OC`, for which the melting point fell in the range of 76.5 to 78 °C.

`Nc1c(-c2ccc(-c3ccc(F)cc3F)cc2)nc2ccccc2c1C(=O)O` displayed a melting point of 244 to 247 °C.

`CCNC(=S)N(CC)c1ccc(Cl)nc1` came in with a melting point of 84 to 86 °C.

`Cc1cn2c(=O)c(C(=O)O)cnc2c2cc(N)ccc12` came in with a melting point above 300 °C.

For the molecule `O=C(NCC(=O)C(F)(F)F)c1cnc(OCC(F)(F)F)c(-c2ccc(Cl)c(Cl)c2)c1`, the melting point lay within 122 to 124 °C.

For the molecule `COC(=O)c1nc(Br)nc(Br)c1Cl`, the melting point fell in the range of 92 to 93 °C.

Regarding `Cc1ccc2c(c1)C(C(Cl)(Cl)Cl)OC(C(Cl)(Cl)Cl)O2` (centres undefined), the melting point was 134 to 135 °C.

With `COc1ccc(Cn2cc[nH]c2=S)cc1`, the melting point turned out to be 140 °C.

In turn, `N#Cc1nn(-c2c([N+](=O)[O-])cc(C(F)(F)F)cc2[N+](=O)[O-])c(N)c1SC(F)(F)F` yielded a melting point of 214 °C.

`O=C(COc1ccc2ccccc2c1)N1CCCN(c2cc(N3CCCC3)nc(N3CCCC3)n2)CC1` gave a melting point of 103 to 110 °C.

On to `O=C(NCc1ccc(Cl)nc1)C(Cl)=NNc1ccc(C(F)(F)F)cc1`, for which the melting point was 172 to 173 °C.

Molecule `C=C(C)CN1Cc2cscc2Nc2ccccc21` gave a melting point of 83 to 84 °C.

With `Cc1nnc(-c2ccc3ncn(C4CCN(Cc5ccccc5)CC4)c3c2)o1`, the melting point was in the range of 173 to 174 °C.

For `COc1ccc(C(=O)Nc2cccnc2)c2c3cc(Cl)ccc3n(Cc3ccc(F)cc3)c12`, the melting point is 224 to 228 °C.

`OCc1cc(I)cc(I)c1` registered a melting point of 136 to 140 °C.

`CCS(=O)(=O)N(C)C1CCN(c2ccccc2)c2ccccc21` (centres undefined): the melting point amounted to 72 °C.

In turn, `Cc1ccc(N2CSC(=NCC(F)(F)F)N(Cc3ccc(C(F)(F)F)cc3)C2=O)cc1` displayed a melting point of 62 to 63 °C.

Take `O=C(CNS(=O)(=O)c1ccc2ccccc2c1)NCC(NC(=O)C1CCN(c2ccncc2)CC1)C(=O)N1CCCCC1` (centres undefined): the melting point lay in the range of 200 to 202 °C.

`Cc1ccccc1C1(n2ccnc2)c2ccccc2-c2sccc21` (centres undefined) came in with a melting point of 75 °C.

The molecule `CC(C)(C)OC(=O)NC(C)(C)c1ccc(C(=O)CC#N)cc1` returned a melting point of 122 to 123 °C.

The molecule `CC(=O)c1ccc(-c2ccc(Cl)cc2)cc1` came in with a melting point of 100 to 101 °C.

Regarding `COc1ccc2c(-c3ccc(Cl)cc3)noc2c1`, the melting point lay within 148 to 149 °C.

Consider `CS(=O)(=O)Nc1c(C(=O)c2cccc(Br)c2)[nH]c2cc(Cl)ccc12`, for which the melting point fell in the range of 184 to 185 °C.

Consider `CC(NC(=O)Nc1cc(Cl)ccc1CCc1cc(C(C)(C)C)c(O)c(C(C)(C)C)c1)c1ccccc1` (centres undefined), for which the melting point is 167 to 168 °C.

On to `CN(C)c1ccc2nc(N)c(C#N)c(N=Cc3ccccc3)c2c1`, for which the melting point was found to be 265 °C.

`Nn1cc(Br)c(=O)[nH]c1=O` displayed a melting point of 214 to 215 °C.

Molecule `COc1ccc(/C=C/C(=O)CC(=O)/C=C/c2ccc(O)cc2)cc1O` showed a melting point of 207 to 210 °C.

In turn, `CC12CCCC=C1CCC1C2CCC2(C)C(O)CCC12` (centres undefined) showed a melting point of 144 to 147 °C.

Molecule `CCCCCCOc1ccc(-c2ncc(Br)cn2)cn1` yielded a melting point of 103 to 106 °C.

In turn, `Cc1nc2c3c(ccn2c1C)C(O)C(O)C(c1ccccc1)N3` (centres undefined) yielded a melting point of 199 to 200 °C.

The molecule `CON1C=C2N=NC3=C(N2C1)N(C1CCCCC1)CC(C)=C3` came in with a melting point of 174 to 177 °C.

As for `O=C(O)Cc1nc(-c2ccc(Cl)cc2)oc1-c1ccsc1`, the melting point was 218 to 219 °C.

The molecule `CN1C(=O)CC[C@]2(C)c3ccc(Sc4ccc5cc(F)ccc5n4)cc3CC[C@@H]12` had a melting point of 152 to 155 °C.

`O=[N+]([O-])c1ccccc1C1=NCC(=S)Nc2sc(Cl)cc21` gave a melting point of 213 to 215 °C.

The molecule `Cc1cc(-c2ccc(C(F)(F)F)cc2)nc2c(C(=O)Nc3cccc(S(N)(=O)=O)c3)cnn12` came in with a melting point of 270 to 272 °C.

For `CC(=O)N1C(C)(C)CC(Oc2nc(OC3CC(C)(C)N(O)C(C)(C)C3)nc(N3C(C)(C)CCCC3(C)C)n2)CC1(C)C`, the melting point lay within 175 to 176 °C.

In turn, `O=C(O)c1c(Br)cc(OCc2ccccc2)cc1OCc1ccccc1` displayed a melting point of 90 to 91 °C.

`CCCOc1ccc(S(=O)(=O)N2CCN(CC)CC2)cc1C(=O)Nc1c(C(N)=O)nn(Cc2ccccn2)c1CC`: the melting point is 191 to 192 °C.

Molecule `CC(C)(O)c1ccc(-c2ccc(=O)n(Cc3ccc(Cl)cc3)c2)cc1` had a melting point of 157 °C.

In the case of `CCCNC(=O)C1(CCCCCSc2nc3ccc(OCC)cc3s2)c2ccccc2-c2ccccc21`, the melting point is 54 to 56 °C.

In turn, `CC1(OCc2ccccc2F)COC(c2cccc(F)c2)OC1` (centres undefined) gave a melting point of 83 to 84 °C.

`Cc1ccc(S(=O)(=O)N2CCC3(CCc4ccccc43)CC2)cc1` gave a melting point of 140 to 142 °C.

`N#CC(=Cc1ccc2c(c1)OCO2)CN1CCOCC1` returned a melting point of 82 to 84 °C.

As for `COc1ccc2c(c1)OC(CCO)C(=O)N2Cc1cccc([N+](=O)[O-])c1` (centres undefined), the melting point is 116 to 118 °C.

In the case of `O=C(c1cccc(Cl)c1)c1cc(F)nc2ccccc12`, the melting point came out at 93.2 °C.

The molecule `Nc1nnc(C(F)(F)C(Cl)Cl)s1` gave a melting point of 181 to 182 °C.

`C#Cc1cccc(N2C(=O)C=CC2=O)c1` gave a melting point of 129 to 131 °C.

`CCCn1nnn(-c2cc(OC(C)C)c(F)cc2F)c1=O`: the melting point lay within 76.5 to 77 °C.

With `Cc1ccc(N2CCCN(c3cc[nH]c(=S)c3C#N)CC2)cc1[N+](=O)[O-]`, the melting point lay within 277 to 278 °C.

Regarding `CCOP(=O)(OCC)c1ccc(NC(=O)C2Cc3c(cccc3C(C)C)C(=O)CS2(=O)=O)cc1` (centres undefined), the melting point fell in the range of 229 to 230 °C.

For the molecule `Cn1c(C(F)(F)F)cc(=O)n(-c2ccc3snc(OCC#N)c3c2)c1=O`, the melting point is 265 to 266 °C.

In the case of `N#CNC(=N)NCCc1c[nH]cn1`, the melting point was 152 to 154 °C.

`CCCC(=O)c1cc2c(cc1C)NC(=O)C2(O)C(=O)OCC` (centres undefined) registered a melting point of 180 to 181 °C.

In the case of `COC(=O)N1C(=O)C=CC1=O`, the melting point is 61 to 63 °C.

Turning to `CCCNc1ccc(NCc2ccc(NCCC)nc2)nc1`, the melting point lay in the range of 129 to 130 °C.

`CC(C)(Oc1ccc(NC(=O)Nc2ccc(Cl)c(Cl)c2)cc1)C(=O)O`: the melting point lay within 183 to 184 °C.

With `Cc1ncccc1Cn1nnnc1-c1cccc(Cl)c1Cl`, the melting point lay in the range of 121 to 122 °C.

For `COc1cc(C(C)(C)C)c2c(c1)C(C)(C)C(=O)O2`, the melting point lay in the range of 63.5 to 64.5 °C.

For the molecule `CNC1=NN(c2ccc(Cl)cc2)C(C)C1` (centres undefined), the melting point was in the range of 102 to 103 °C.

Molecule `CC12CCC(=O)C=C1CCN(Cc1ccccc1)C2` (centres undefined) returned a melting point of 98 °C.

In turn, `Cc1ccc(-c2nc(Cl)nc(Cl)c2-c2ccc(Cl)cc2)cc1` had a melting point of 223 to 225 °C.

For the molecule `Cc1nnc(C(CCN2CC3CC4CC(C3)CC2C4)(c2ccccc2)c2ccccc2)o1`, the melting point lay within 120 to 121 °C.

As to `CCCCc1nn(-c2cc([N+](=O)[O-])ccc2C(F)(F)F)c(=O)n1Cc1ccc(-c2ccccc2S(=O)(=O)NC(C)(C)C)cc1`, the melting point is 135 to 137 °C.

Molecule `Cc1sc(-c2ccc(Cl)cc2)nc1O` showed a melting point of 198 to 199 °C.

The molecule `COc1cc2nccc(N3CCN(C(=O)Nc4ccc(Oc5ccccc5)cc4)CC3)c2cc1OC` displayed a melting point of 204 to 206 °C.

Regarding `CCOC(=O)C1=C(C)NC(C)=C(C(=O)OCCBr)C1c1cccc([N+](=O)[O-])c1` (centres undefined), the melting point was 158 to 159 °C.
